Structures are written as SMILES. Read-outs that look alike come from different tables or passages of the source.

The test has as its system hematopoietic system damage model in which the mouse has been exposed to cyclophosphamide. Type of test: in vivo, KM mice. On the set-up: unit not given here.

Consider `C#C[C@]1(O)[C@H](O)C[C@H]2[C@@H]3CCc4cc(OC5CCCC5)ccc4[C@H]3CC[C@@]21C` [Nilestriol], for which the “peripheral blood WBC” value was 13.8 ± 2.5 ×10^12 (nilestriol 10 mg/kg group, normal (before modeling)); 3.6 ± 0.9 ×10^12 (nilestriol 10 mg/kg once 6 h after cyclophosphamide, 1 d after modeling); 3.5 ± 2.5 ×10^12 (nilestriol 10 mg/kg once 6 h after cyclophosphamide, 4 d after modeling); 8.0 ± 2.5 ×10^12 (nilestriol 10 mg/kg once 6 h after cyclophosphamide, 6 d after modeling); 12.0 ± 5.9 ×10^12 (nilestriol 10 mg/kg once 6 h after cyclophosphamide, 12 d after modeling).

The record behind these values is patent publication US12090176B2 (priority 2019, dated 2024).
